From US20070072209A1, “Methods of treatment and diagnosis of Kaposi's sarcoma (KS) and KS related diseases” (priority 2005, published 2007)

Key:
DMVEC = test: Uptake, distribution and persistence of FITC-labeled PMO antisense; assay type: cell-based, human; conditions: 3 hours after loading, FITC-labeled PMO with EPEI
Description: Introduction of antisense PMO into KSHV-infected DMVEC. Antisense PMO molecules, for delivery purposes, are typically converted to a paired duplex together with a partially complementary cDNA oligonucleotide in the weakly basic delivery reagent ethoxylated polyethylenimine (EPEI) (Summerton, supra). The anionic complex binds to the cell surface, is taken up by endocytosis and eventually released into the cytosol. A protocol for optimum uptake of antisense PMO in immortalized DMVEC was developed using a modification of the EPEI method. Briefly, uninfected, immortalized DMVECs were incubated for 3 hours at 37° C. with 0.6 nmol/well FITC-PMO complexed with EPEI according to the manufacturer's instructions (GeneTools, LLC, One Summerton Way, Philomath, Oreg. 97370) (e.g., 1.25 nMol oligomer with 2.5 μl EPEI reagent per 35 mm dish, allowing for sufficient antisense uptake without non-specific EPEI-induced toxicity). The PMOs were labeled with FITC to allow for monitoring of loading efficiency by fluorescence microscopy.
Cellular distribution of introduced FITC-labeled PMO antisense molecules. […]
Therefore, the introduced PMO antisense oligomers were determined to be stable over substantial time periods in DMVEC. […] Moreover, the PMO oligomers were readily taken up by DMVEC and distributed within the cytosol.

KSHV-infected DMVEC = test: XTT assay of PMO-AS effect on post-confluent growth (Example 5); assay type: cell-based, human; conditions: 72 hours
Protocol: XTTAssay. Metabolism of XTT to a water-soluble formazan dye by viable cells gives a quantitative determination of relative cell number. The XTT assay was thus used to quantitatively assess the effect of PMO-AS treatment on KSHV focus formation and post-confluent growth. For these assays, KSHV-infected and uninfected DMVEC were seeded into 96-well flat-bottom Primaria trays at 10^4 cells/well, loaded with PMO-AS after overnight equilibration, and cultured for 72 hrs. For the final 4 hours of culture, 50 μl XTT (Roche Diagnostics, Indianapolis, Ind.) was added to each well and the optical density (OD) of each well was recorded by an ELISA reader between 450 and 500 nm. To verify efficient (>80%) PMO-AS uptake in the 96-well format, cells were treated with a FITC-tagged morpholino (FITC-PMO) and uptake visually assessed under a fluorescence microscope. This FITC-PMO also served as a control for any non-specific effect of the PMO-AS:EPEI complex on DMVEC growth. As a positive control, cells were treated with a c-Kit PMO-AS previously shown to inhibit KSHV-induced transformation (Moses, 2002). For NIH 3T3 cells, the XTT assay was performed in 96-well plates at a cell density of 10^4 cells/well, and OD measured at 48 hours.
In view of the above-described effects of Neuritin- and RDC1-specific PMO-AS in inhibiting focus formation of KSHV-infected DMVEC, a further determination was made to determine whether such inhibition correlated with reduced cellular proliferation. Such reduced cellular proliferation would be expected, because the development of multilayered cell foci requires additional cell growth that would not occur if contact inhibition was maintained. A colorimetric cellular proliferation assay was used to assess cell growth. […] This growth can be accurately assessed by monitoring the metabolism of XTT added to each well by measurement of optical density at […] (e.g., 4 hours post XTT addition). […] To verify efficient (>80%) PMO-AS uptake in the 96-well format, cells were treated with a FITC-tagged PMO-AS (FITC-PMO) and uptake visually assessed under a fluorescence microscope. […]

KSHV = test: Immunofluorescent staining for latent (LANA-1/ORF73) and early lytic (ORF59) viral proteins after PMO-AS; assay type: cell-based; conditions: PMO-AS-treated KSHV-infected DMVEC
Description: KSHV-infected DMVEC. DMVECs were used as an in vitro model for examining cancerous transformation and viral replication, based, inter alia, on that fact that neoplastic cells in KS tumors are predominantly of vascular origin, whereas KSHV is primarily found in cells of endothelial origin. Specifically, a previously described DMVEC system (Moses et al., J. Virol. 73:6892-6902, 1999) was used for studying infection and transformation by KSHV. Briefly, DMVEC's were immortalized with the E6/E7 genes of human papillomavirus (HPV)-16 prior to infection with KSHV. […] KSHV was obtained from the supernatant of KSHV-infected B-cell lines (e.g., TPA-stimulated BCBL-1 cells). Infection was verified by DNA PCR for amplification of the KS330 BamH1 fragment of the ORF 26 gene, and RT-PCR for the spliced mRNA from the ORF29 gene. The percentage of latently infected cells was determined by immunofluorescent staining for LANA/ORF73. Lytic induction was evaluated with antibodies against an early lytic protein ORF59/PF-8 and a late lytic glycoprotein ORF K8.1A/B. DMVEC were used for experiments when 90% of cells expressed ORF73. In the absence of chemical induction, 2-5% of infected cells expressed ORF59 with approximately 10% of the ORF59-positive cells expressing K8.1A/B. Lytic replication can be induced, however, using phorbol esters such as […] (PMA) providing the ability to look for host genes involved in, or modulated by the lytic cycle as well.
To ascertain whether PMO-AS treatment could be indirectly influencing cell phenotype through an effect on KSHV lytic replication, cells treated with PMO-AS against c-Kit, RDC1 and Neuritin were evaluated by immunofluorescent staining for expression of latent (LANA-1/ORF73) and early lytic (ORF59) viral proteins as previously described (Moses, 1999).

| Substance | cells with FITC-PMO concentrated in intracellular vesicles (endosomes) (DMVEC) | effect on cell growth in XTT assay (in words) (KSHV-infected DMVEC) | expression of ORF73 (latent viral protein) (KSHV) |
| --- | --- | --- | --- |
| KIT: FITC-labeled PMO targeting the start codon of c-Kit, CGCCTCTCATCGCGGTAGCTGCG (SEQ ID NO:21) (all phosphorodiamidate morpholino (PMO); FITC label attached, position not given here) | about 70% | dramatically inhibited cell growth | maintained expression of ORF73 |
| Neuritin: PMO antisense to Neuritin, TTAACTCCCATCCTACGTTTAGTCA (SEQ ID NO:19) (all phosphorodiamidate morpholino (PMO); delivered paired with partially complementary DNA oligo (Special Delivery)) | – | dramatically inhibited cell growth | maintained expression of ORF73 |
| RDC-1: PMO antisense to RDC-1, GAAGAGATGCAGATCCATCGTTCTG (SEQ ID NO:15) (all phosphorodiamidate morpholino (PMO); delivered paired with partially complementary DNA oligo (Special Delivery)) | – | dramatically inhibited cell growth | maintained expression of ORF73 |
